Reference: patent publication US7803930B2, “Antisense modulation of apolipoprotein B-expression” (Isis Pharmaceuticals, Inc., priority 2002, dated 2010)

Tested on: human apolipoprotein B mRNA
Test: Inhibition of human apolipoprotein B mRNA levels in HepG2 cells, quantitative real-time PCR
Assay type: cell-based
Conditions: HepG2 cells; for % inhibition of apolipoprotein B mRNA levels: normalized to untreated control, average of two experiments
How it was run: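 HepG2 cells at 80% confluency were transfected with antisense oligonucleotide using 3.75 μg/mL Lipofectin in Opti-MEM for 4-7 h and harvested 16-24 h after treatment. Apolipoprotein B mRNA was measured by real-time RT-PCR and normalized to GAPDH or RiboGreen total RNA. Percent inhibition came from untreated-control standard curves.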

[1] = 50 nm oligonucleotide, variable deoxy gap position
[2] = 150 nm oligonucleotide, variable deoxy gap position
[3] = Table 17 variable gap, 50 nM, averages from three experiments
[4] = Table 17 variable gap, 150 nM, averages from three experiments

Substance	% INHIB 50 nm [1]	% INHIB 150 nm [2]	% INHIB 50 nm [3]	% INHIB 150 nm [4]	also measured
308634 (AGGTTACCAGCCACATGCAG; 10-10-0 MOE gapmer, phosphorothioate, chemistry not fully specified) [compound 308634]	45%	67%	–	–	–
308635 (GCCTCAGTCTGCTTCGCACC; 10-10-0 MOE gapmer, phosphorothioate, chemistry not fully specified) [compound 308635]	69%	93%	–	–	–
308636 (GCCTCAGTCTGCTTCGCGCC; all C 5-methyl, all phosphorothioate, sugars by position not given here; further chemistry not fully specified) [compound 308636]	–	–	81%	91%	–
308637 (AGGTTACCAGCCACATGCAG; 1-10-9 MOE gapmer, phosphorothioate, chemistry not fully specified) [compound 308637]	79%	95%	–	–	–
308638 (GCCTCAGTCTGCTTCGCACC; 1-10-9 MOE gapmer, phosphorothioate, chemistry not fully specified) [compound 308638]	91%	94%	–	–	% inhibition of apolipoprotein B mRNA levels (12.5 nM oligonucleotide): 42%; % inhibition of apolipoprotein B mRNA levels (37 nM oligonucleotide): 73%; % inhibition of apolipoprotein B mRNA levels (75 nM oligonucleotide): 91%; % inhibition of apolipoprotein B mRNA levels (150 nM oligonucleotide): 96%; % inhibition of apolipoprotein B mRNA levels (300 nM oligonucleotide): 97%
308639 (GCCTCAGTCTGCTTCGCGCC; all C 5-methyl, all phosphorothioate, sugars by position not given here; further chemistry not fully specified) [compound 308639]	–	–	86%	94%	–
308640 (AGGTTACCAGCCACATGCAG; 2-10-8 MOE gapmer, phosphorothioate, chemistry not fully specified) [compound 308640]	76%	96%	–	–	–
308641 (GCCTCAGTCTGCTTCGCACC; 2-10-8 MOE gapmer, phosphorothioate, chemistry not fully specified) [compound 308641]	77%	89%	–	–	–
308642 (GCCTCAGTCTGCTTCGCGCC; 3-10-7 MOE gapmer, phosphorothioate, chemistry not fully specified) [compound 308642]	–	–	85%	95%	% inhibition of apolipoprotein B mRNA levels (12.5 nM oligonucleotide): 59%; % inhibition of apolipoprotein B mRNA levels (37 nM oligonucleotide): 84%; % inhibition of apolipoprotein B mRNA levels (75 nM oligonucleotide): 91%; % inhibition of apolipoprotein B mRNA levels (150 nM oligonucleotide): 97%; % inhibition of apolipoprotein B mRNA levels (300 nM oligonucleotide): 98%
308643 (antisense AGGTTACCAGCCACATGCAG; 3-10-7 2'-MOE gapmer, phosphorothioate, chemistry not fully specified) [compound 308643]	56%	96%	–	–	–
308644 (antisense GCCTCAGTCTGCTTCGCACC; 3-10-7 2'-MOE gapmer, phosphorothioate, chemistry not fully specified) [compound 308644]	71%	93%	–	–	–
308645 (antisense GCCTCAGTCTGCTTCGCGCC; 4-10-6 2'-MOE gapmer, phosphorothioate, chemistry not fully specified) [compound 308645]	–	–	57%	98%	–
308646 (antisense AGGTTACCAGCCACATGCAG; 4-10-6 2'-MOE gapmer, phosphorothioate, chemistry not fully specified) [compound 308646]	50%	76%	–	–	–
308647 (antisense GCCTCAGTCTGCTTCGCACC; 4-10-6 2'-MOE gapmer, phosphorothioate, chemistry not fully specified) [compound 308647]	53%	86%	–	–	–
308648 (antisense GCCTCAGTCTGCTTCGCGCC; 6-10-4 2'-MOE gapmer, phosphorothioate, chemistry not fully specified) [compound 308648]	–	–	78%	89%	–
308649 (antisense AGGTTACCAGCCACATGCAG; 6-10-4 2'-MOE gapmer, phosphorothioate, chemistry not fully specified) [compound 308649]	68%	91%	–	–	–
308650 (antisense GCCTCAGTCTGCTTCGCACC; 6-10-4 2'-MOE gapmer, phosphorothioate, chemistry not fully specified) [compound 308650]	74%	94%	–	–	–
308651 (antisense GCCTCAGTCTGCTTCGCGCC; 7-10-3 2'-MOE gapmer, phosphorothioate, chemistry not fully specified) [compound 308651]	–	–	87%	88%	% inhibition of apolipoprotein B mRNA levels (12.5 nM oligonucleotide): 57%; % inhibition of apolipoprotein B mRNA levels (37 nM oligonucleotide): 76%; % inhibition of apolipoprotein B mRNA levels (75 nM oligonucleotide): 84%; % inhibition of apolipoprotein B mRNA levels (150 nM oligonucleotide): 90%; % inhibition of apolipoprotein B mRNA levels (300 nM oligonucleotide): 88%
308652 (antisense AGGTTACCAGCCACATGCAG; 7-10-3 2'-MOE gapmer, phosphorothioate, chemistry not fully specified) [compound 308652]	73%	95%	–	–	–
308653 (antisense GCCTCAGTCTGCTTCGCACC; 7-10-3 2'-MOE gapmer, phosphorothioate, chemistry not fully specified) [compound 308653]	73%	89%	–	–	–
308654 (antisense GCCTCAGTCTGCTTCGCGCC; 8-10-2 2'-MOE gapmer, phosphorothioate, chemistry not fully specified) [compound 308654]	–	–	81%	90%	–
308655 (antisense AGGTTACCAGCCACATGCAG; 8-10-2 2'-MOE gapmer, phosphorothioate, chemistry not fully specified) [compound 308655]	84%	83%	–	–	–
308656 (antisense GCCTCAGTCTGCTTCGCACC; 8-10-2 2'-MOE gapmer, phosphorothioate, chemistry not fully specified) [compound 308656]	37%	97%	–	–	–
308657 (antisense GCCTCAGTCTGCTTCGCGCC; 9-10-1 2'-MOE gapmer, phosphorothioate, chemistry not fully specified) [compound 308657]	–	–	61%	78%	–
308658 (antisense AGGTTACCAGCCACATGCAG; 9-10-1 2'-MOE gapmer, phosphorothioate, chemistry not fully specified) [compound 308658]	86%	78%	–	–	% inhibition of apolipoprotein B mRNA levels (12.5 nM oligonucleotide): 29%; % inhibition of apolipoprotein B mRNA levels (37 nM oligonucleotide): 61%; % inhibition of apolipoprotein B mRNA levels (75 nM oligonucleotide): 73%; % inhibition of apolipoprotein B mRNA levels (150 nM oligonucleotide): 78%; % inhibition of apolipoprotein B mRNA levels (300 nM oligonucleotide): 90%
